Assay results published in the supplement of paper PMC9663587.

The compounds below were run on EFM19 (assay: GRmax, 72 h; higher = less effect;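 further: breast cell lines in 384-well plates, nine doses across a 10^4 range, Dye Drop imaging of viable cells vs DMSO and time-zero plates, GR 0 means no net growth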).
With `CN(C)C/C=C/C(=O)Nc1ccc(C(=O)Nc2cccc(Nc3cc(-c4c[nH]c5ccccc45)ncn3)c2)cc1` [THZ-P1-2] (max 10 µM) the “GRmax, 72 h” value was 0.124 GR. `Cc1nc(-c2cn3c(n2)-c2ccc(-c4cnn(C(C)(C)C(N)=O)c4)cc2OCC3)n(C(C)C)n1` [Taselisib/GDC0032] (max 10 µM) was tested, and the “GRmax, 72 h” value was -0.143 GR. In the case of `O=C1NC(=O)[C@@H](c2cn3c4c(cccc24)CCC3)[C@@H]1c1c[nH]c2ccccc12` [Tivantinib/ARQ197] (max 10 µM), the “GRmax, 72 h” value is reported as -0.592 GR. With `Nc1ccc(-c2ccc3ncc4ccc(=O)n(-c5cccc(C(F)(F)F)c5)c4c3c2)cn1` [Torin2] (max 1 µM) the “GRmax, 72 h” value was -0.0622 GR. In the case of `CC[C@@H]1C(=O)N(C)c2cnc(Nc3ccc(C(=O)N[C@H]4CC[C@H](N5CCN(CC6CC6)CC5)CC4)cc3OC)nc2N1C(C)C` [Volasertib/BI6727] (max 1 µM), the “GRmax, 72 h” value is reported as -0.577 GR. `O=C(CCCCCCC(=O)Nc1ccccc1)NO` [Vorinostat] (max 10 µM) was tested, and the “GRmax, 72 h” value was -0.248 GR. For `C=CC(=O)Nc1ccc(C(=O)Nc2[nH]nc3c2CN(C(=O)N[C@H](CN(C)C)c2ccccc2)C3(C)C)cc1` [YKL-5-124] (max 10 µM), the “GRmax, 72 h” value was 0.0431 GR. `CN1CCN(C(=O)c2ccc3cc(CCNc4ncnc5ccc(C#N)cc45)ccc3c2)CC1` [senexin b] (max 10 µM) was tested, and the “GRmax, 72 h” value was 0.629 GR.

These compounds were tested on CAL120 (assay: GRmax, 72 h; higher = less effect;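 further: breast cell lines in 384-well plates, nine doses across a 10^4 range, Dye Drop imaging of viable cells vs DMSO and time-zero plates, GR 0 means no net growth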).
For `O=C1NC(=NCc2cccs2)SC1=Cc1ccc2ncccc2c1` [R0-3306] (max 10 µM), the “GRmax, 72 h” value was 0.15 GR. `CNCc1ccc(-c2[nH]c3cc(F)cc4c3c2CCNC4=O)cc1` [Rucaparib] (max 10 µM) was tested, and the “GRmax, 72 h” value was 0.613 GR. In the case of `CC1(N)CCN(c2cnc(-c3cccc(Cl)c3Cl)c(N)n2)CC1` [SHP099] (max 10 µM), the “GRmax, 72 h” value is reported as 0.869 GR. For `CN1CCN(CCOc2cc(OC3CCOCC3)c3c(Nc4c(Cl)ccc5c4OCO5)ncnc3c2)CC1` [Saracatinib/AZD0530] (max 10 µM), the “GRmax, 72 h” value was 0.526 GR. With `Cc1cc(C(C)Nc2ccccc2)c2nc(N3CCOCC3)cc(=O)n2c1` (centres undefined) [TGX221] (max 10 µM) the “GRmax, 72 h” value was 1.02 GR. With `CN(C)C/C=C/C(=O)Nc1ccc(C(=O)Nc2cccc(Nc3ncc(Cl)c(-c4c[nH]c5ccccc45)n3)c2)cc1` [THZ1] (max 1 µM) the “GRmax, 72 h” value was -0.128 GR. `CN(C)C/C=C/C(=O)Nc1ccc(C(=O)N2CCC[C@@H](Nc3ncc(Cl)c(-c4c[nH]c5ccccc45)n3)C2)cc1` [THZ531] (max 1 µM) was tested, and the “GRmax, 72 h” value was -0.0211 GR. With `CN(C)C/C=C/C(=O)Nc1ccc(C(=O)Nc2cccc(Nc3cc(-c4c[nH]c5ccccc45)ncn3)c2)cc1` [THZ-P1-2] (max 10 µM) the “GRmax, 72 h” value was -0.278 GR. In the case of `Cc1nc(-c2cn3c(n2)-c2ccc(-c4cnn(C(C)(C)C(N)=O)c4)cc2OCC3)n(C(C)C)n1` [Taselisib/GDC0032] (max 10 µM), the “GRmax, 72 h” value is reported as 0.151 GR. `O=C1NC(=O)[C@@H](c2cn3c4c(cccc24)CCC3)[C@@H]1c1c[nH]c2ccccc12` [Tivantinib/ARQ197] (max 10 µM) was tested, and the “GRmax, 72 h” value was -0.256 GR. With `Nc1ccc(-c2ccc3ncc4ccc(=O)n(-c5cccc(C(F)(F)F)c5)c4c3c2)cn1` [Torin2] (max 1 µM) the “GRmax, 72 h” value was -0.0115 GR. With `CC[C@@H]1C(=O)N(C)c2cnc(Nc3ccc(C(=O)N[C@H]4CC[C@H](N5CCN(CC6CC6)CC5)CC4)cc3OC)nc2N1C(C)C` [Volasertib/BI6727] (max 1 µM) the “GRmax, 72 h” value was 0.0258 GR. In the case of `O=C(CCCCCCC(=O)Nc1ccccc1)NO` [Vorinostat] (max 10 µM), the “GRmax, 72 h” value is reported as -0.228 GR. In the case of `C=CC(=O)Nc1ccc(C(=O)Nc2[nH]nc3c2CN(C(=O)N[C@H](CN(C)C)c2ccccc2)C3(C)C)cc1` [YKL-5-124] (max 10 µM), the “GRmax, 72 h” value is reported as 0.182 GR. `CN1CCN(C(=O)c2ccc3cc(CCNc4ncnc5ccc(C#N)cc45)ccc3c2)CC1` [senexin b] (max 10 µM) was tested, and the “GRmax, 72 h” value was 0.856 GR.

These compounds were tested on HCC1954 (assay: GRmax, 72 h; higher = less effect;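 further: breast cell lines in 384-well plates, nine doses across a 10^4 range, Dye Drop imaging of viable cells vs DMSO and time-zero plates, GR 0 means no net growth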).
With `O=C1NC(=NCc2cccs2)SC1=Cc1ccc2ncccc2c1` [R0-3306] (max 10 µM) the “GRmax, 72 h” value was -0.0775 GR. `CNCc1ccc(-c2[nH]c3cc(F)cc4c3c2CCNC4=O)cc1` [Rucaparib] (max 10 µM) was tested, and the “GRmax, 72 h” value was 0.906 GR. For `CC1(N)CCN(c2cnc(-c3cccc(Cl)c3Cl)c(N)n2)CC1` [SHP099] (max 10 µM), the “GRmax, 72 h” value was 0.569 GR. For `CN1CCN(CCOc2cc(OC3CCOCC3)c3c(Nc4c(Cl)ccc5c4OCO5)ncnc3c2)CC1` [Saracatinib/AZD0530] (max 10 µM), the “GRmax, 72 h” value was 0.0936 GR. With `Cc1cc(C(C)Nc2ccccc2)c2nc(N3CCOCC3)cc(=O)n2c1` (centres undefined) [TGX221] (max 10 µM) the “GRmax, 72 h” value was 0.961 GR. For `CN(C)C/C=C/C(=O)Nc1ccc(C(=O)Nc2cccc(Nc3ncc(Cl)c(-c4c[nH]c5ccccc45)n3)c2)cc1` [THZ1] (max 1 µM), the “GRmax, 72 h” value was -0.507 GR. In the case of `CN(C)C/C=C/C(=O)Nc1ccc(C(=O)N2CCC[C@@H](Nc3ncc(Cl)c(-c4c[nH]c5ccccc45)n3)C2)cc1` [THZ531] (max 1 µM), the “GRmax, 72 h” value is reported as -0.303 GR. In the case of `CN(C)C/C=C/C(=O)Nc1ccc(C(=O)Nc2cccc(Nc3cc(-c4c[nH]c5ccccc45)ncn3)c2)cc1` [THZ-P1-2] (max 10 µM), the “GRmax, 72 h” value is reported as -0.649 GR. For `Cc1nc(-c2cn3c(n2)-c2ccc(-c4cnn(C(C)(C)C(N)=O)c4)cc2OCC3)n(C(C)C)n1` [Taselisib/GDC0032] (max 10 µM), the “GRmax, 72 h” value was -0.363 GR. With `O=C1NC(=O)[C@@H](c2cn3c4c(cccc24)CCC3)[C@@H]1c1c[nH]c2ccccc12` [Tivantinib/ARQ197] (max 10 µM) the “GRmax, 72 h” value was -0.385 GR. `Nc1ccc(-c2ccc3ncc4ccc(=O)n(-c5cccc(C(F)(F)F)c5)c4c3c2)cn1` [Torin2] (max 1 µM) was tested, and the “GRmax, 72 h” value was -0.328 GR. With `CC[C@@H]1C(=O)N(C)c2cnc(Nc3ccc(C(=O)N[C@H]4CC[C@H](N5CCN(CC6CC6)CC5)CC4)cc3OC)nc2N1C(C)C` [Volasertib/BI6727] (max 1 µM) the “GRmax, 72 h” value was -0.154 GR. In the case of `O=C(CCCCCCC(=O)Nc1ccccc1)NO` [Vorinostat] (max 10 µM), the “GRmax, 72 h” value is reported as -0.14 GR. With `C=CC(=O)Nc1ccc(C(=O)Nc2[nH]nc3c2CN(C(=O)N[C@H](CN(C)C)c2ccccc2)C3(C)C)cc1` [YKL-5-124] (max 10 µM) the “GRmax, 72 h” value was -0.14 GR. `CN1CCN(C(=O)c2ccc3cc(CCNc4ncnc5ccc(C#N)cc45)ccc3c2)CC1` [senexin b] (max 10 µM) was tested, and the “GRmax, 72 h” value was 0.455 GR.

Each compound was assayed on SUM190PT (assay: GRmax, 72 h; higher = less effect;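 further: breast cell lines in 384-well plates, nine doses across a 10^4 range, Dye Drop imaging of viable cells vs DMSO and time-zero plates, GR 0 means no net growth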).
In the case of `O=C1NC(=NCc2cccs2)SC1=Cc1ccc2ncccc2c1` [R0-3306] (max 10 µM), the “GRmax, 72 h” value is reported as -0.11 GR. `CNCc1ccc(-c2[nH]c3cc(F)cc4c3c2CCNC4=O)cc1` [Rucaparib] (max 10 µM) was tested, and the “GRmax, 72 h” value was 0.771 GR. In the case of `CC1(N)CCN(c2cnc(-c3cccc(Cl)c3Cl)c(N)n2)CC1` [SHP099] (max 10 µM), the “GRmax, 72 h” value is reported as 0.749 GR. For `CN1CCN(CCOc2cc(OC3CCOCC3)c3c(Nc4c(Cl)ccc5c4OCO5)ncnc3c2)CC1` [Saracatinib/AZD0530] (max 10 µM), the “GRmax, 72 h” value was 0.581 GR. `Cc1cc(C(C)Nc2ccccc2)c2nc(N3CCOCC3)cc(=O)n2c1` (centres undefined) [TGX221] (max 10 µM) was tested, and the “GRmax, 72 h” value was 0.989 GR. `CN(C)C/C=C/C(=O)Nc1ccc(C(=O)Nc2cccc(Nc3ncc(Cl)c(-c4c[nH]c5ccccc45)n3)c2)cc1` [THZ1] (max 1 µM) was tested, and the “GRmax, 72 h” value was -0.467 GR. With `CN(C)C/C=C/C(=O)Nc1ccc(C(=O)N2CCC[C@@H](Nc3ncc(Cl)c(-c4c[nH]c5ccccc45)n3)C2)cc1` [THZ531] (max 1 µM) the “GRmax, 72 h” value was -0.725 GR. With `CN(C)C/C=C/C(=O)Nc1ccc(C(=O)Nc2cccc(Nc3cc(-c4c[nH]c5ccccc45)ncn3)c2)cc1` [THZ-P1-2] (max 10 µM) the “GRmax, 72 h” value was -0.218 GR. In the case of `Cc1nc(-c2cn3c(n2)-c2ccc(-c4cnn(C(C)(C)C(N)=O)c4)cc2OCC3)n(C(C)C)n1` [Taselisib/GDC0032] (max 10 µM), the “GRmax, 72 h” value is reported as -0.253 GR. `O=C1NC(=O)[C@@H](c2cn3c4c(cccc24)CCC3)[C@@H]1c1c[nH]c2ccccc12` [Tivantinib/ARQ197] (max 10 µM) was tested, and the “GRmax, 72 h” value was -0.138 GR. With `Nc1ccc(-c2ccc3ncc4ccc(=O)n(-c5cccc(C(F)(F)F)c5)c4c3c2)cn1` [Torin2] (max 1 µM) the “GRmax, 72 h” value was -0.391 GR.
